The record followed here is US6143492A, “Optical molecular sensors for cytochrome P450 activity” (Aurora Biosciences Corporation, priority 1999, dated 2000).

One data set concerns the target CYP 2C9 (Homo sapiens, UniProt P11712). Kind of data set: Kinetics of fluorogenic substrates with CYP 2C9. The format is biochemical.
The next data set concerns the target T1, CYP 2B6 (Homo sapiens, UniProt P20813).
T1 sequence (P20813 1-491): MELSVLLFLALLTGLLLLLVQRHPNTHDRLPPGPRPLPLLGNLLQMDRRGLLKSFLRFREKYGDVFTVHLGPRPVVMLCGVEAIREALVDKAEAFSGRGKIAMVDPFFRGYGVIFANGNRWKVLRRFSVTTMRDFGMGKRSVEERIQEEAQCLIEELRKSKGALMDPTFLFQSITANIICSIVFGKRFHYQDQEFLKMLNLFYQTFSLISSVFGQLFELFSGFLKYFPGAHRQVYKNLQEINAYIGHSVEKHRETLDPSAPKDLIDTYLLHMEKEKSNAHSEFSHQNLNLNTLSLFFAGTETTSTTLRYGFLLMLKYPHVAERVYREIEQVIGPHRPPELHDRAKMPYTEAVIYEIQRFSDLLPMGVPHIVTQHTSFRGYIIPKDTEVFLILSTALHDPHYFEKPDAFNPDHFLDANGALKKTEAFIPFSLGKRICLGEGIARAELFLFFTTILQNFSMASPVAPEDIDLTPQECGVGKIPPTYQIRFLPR
Kind of data set: Kinetics of fluorogenic substrates with CYP 2B6. The settings on record: for v (1.25 uM), turnover rate at 1.25 μM: CYP 2B6, substrate 1.25 uM; for v (10 uM), turnover rate at 10 μM: CYP 2B6, substrate 10 uM.

The target in another data set is CYP 2D6 (Homo sapiens, UniProt P10635). Kind of data set: biochemical. On the procedure:
CYP 2D6 was incubated with 10 μM concentrations of various known inhibitors and drug substrates and residual CYP 2D6 activity assayed with the fluorogenic substrate MOBFC. The assay was performed in a 96-well plate at room temp and at a volume of 100 μl/well. 4×enzyme buffer was prepared and 25 μl was added to each well on the plate, for final assay concentrations of 3.3 mM glucose-6-phosphate, 0.4 units/ml glucose-6-phosphate dehydrogenase and 10 mM MgCl2 in 100 mM K+ phosphate, pH 8.0. […] Six consecutive 1:3 dilutions were made and 50 μl of each was added to appropriate wells on the assay plate. The CYP2D6 was diluted to a solution of 2 pmol/10 μl in 100 mM K+ phosphate and 10 μl was added to each well. 20 μl of buffer was added to each well containing standard. The drug inhibitors were allowed to pre-incubated with the CYP 2D6 enzyme for 1 hr prior to the addition of the MOBFC substrate. […] Hydroxy-trifluoro-methylcoumarin was diluted to 100 μM in K+ phosphate buffer, and seven consecutive 1:2 dilutions were made. 10 μl of each dilution was added to the appropriate wells on the plate containing 90 μl of 100 mM K+ phosphate, pH 8.0.

Data set [1] addresses T2, CYP 3A4 (Homo sapiens, UniProt P08684).
T2 construct: NADPH regenerating system
As to the kind of experiment: Rate of hydroxylation of BOM-09B by CYP 3A4. In kind it is biochemical. Here is the method:
The racemic compound mixture (designated BOM-09B) was tested for activity with cytochrome P450 isozymes. […] The CYP 3A4 assay was performed in a 96-well plate at 37° C. in a volume of 100 μL/well. BOM-09B was diluted from a stock solution of 1 mM in acetonitrile to a 4×concentration of 80 μM in 100 mM K+ phosphate buffer of which 25 μl was added to the appropriate wells. […] The cytochrome P450 isozyme CYP3A4 was diluted to give a 2 pmol enzyme per well. Enzymic conversion of the substrate to products was allowed to proceed for 1 hour with fluorescence reads taken every 4 minutes on a fluorescence microtiter plate reader. The solution was illuminated with an 395/25 nm excitation filter and fluorescence emission was detected through a 460/40 nm the emission filter.

Data set [2] addresses T2, CYP 3A4. Kind of data set: Kinetics of fluorogenic substrates with CYP 3A4. The format is biochemical. The text has this:
Whichever of the four abstractable hydrogen atoms (designated H^1 and H^2 in this representation of BOMR) is removed in the initial reaction step, with reference to Reaction Scheme 1 of FIG. 1, the hydroxylation product will spontaneously decompose to the free resorufin dye. In addition, the benzyloxy group, attached to the carbon carrying the two hydrogens designated H^2, contributes an inductive electronic effect on that carbon, which can stabilize the radical formed during abstraction of one of the H^2 hydrogens by a cytochrome P450.
Optimization of assay conditions was, and is preferably, accomplished through statistically validated Design of Experiments methodologies, using the commercial software package "Design-Expert®" produced by Stat-Ease® Inc. The data shown in FIGS. 4 and 5 were obtained with initial optimization.
For further understanding these terms in the context of this invention, attention is directed to FIG. 4 and the analysis of FIG. 4.

Substrate in data set [3]: COCOc1ccc2c(C(F)(F)F)cc(=O)oc2c1
As to the kind of experiment: Kinetics of fluorogenic substrates with CYP 2C9. In kind it is biochemical, human. The settings on record: other: CYP 2C9.

Substrate in data set [4]: COc1ccc2c(C(F)(F)F)cc(=O)oc2c1
Kind of data set: Kinetics of fluorogenic substrates with CYP 2C9. In kind it is biochemical, human. The settings on record: other: CYP 2C9.

Substrate in data set [5]: N#Cc1cc2ccc(OCOCc3ccccc3)cc2oc1=O
Kind of data set: Kinetics of fluorogenic substrates with CYP 2C9. The format is biochemical, human. The conditions noted are these: other: CYP 2C9.

Substrate in data set [6]: COc1ccc2c(C(F)(F)F)cc(=O)oc2c1
Kind of data set: Kinetics of fluorogenic substrates with CYP 2D6. In kind it is biochemical, human. The settings on record: other: CYP 2D6.

Some results are limits rather than exact numbers.

What is called kcat is the maximal rate divided by the concentration of active sites. As usually defined, the Ki is the equilibrium dissociation constant of an inhibitor or competing ligand from its target. Lower therefore signals tighter binding. Usually kcat/Km stands for the turnover number divided by the Michaelis constant. In general, Km refers to the concentration of substrate that gives half-maximal velocity.

T2 sequence (P08684 whole entry): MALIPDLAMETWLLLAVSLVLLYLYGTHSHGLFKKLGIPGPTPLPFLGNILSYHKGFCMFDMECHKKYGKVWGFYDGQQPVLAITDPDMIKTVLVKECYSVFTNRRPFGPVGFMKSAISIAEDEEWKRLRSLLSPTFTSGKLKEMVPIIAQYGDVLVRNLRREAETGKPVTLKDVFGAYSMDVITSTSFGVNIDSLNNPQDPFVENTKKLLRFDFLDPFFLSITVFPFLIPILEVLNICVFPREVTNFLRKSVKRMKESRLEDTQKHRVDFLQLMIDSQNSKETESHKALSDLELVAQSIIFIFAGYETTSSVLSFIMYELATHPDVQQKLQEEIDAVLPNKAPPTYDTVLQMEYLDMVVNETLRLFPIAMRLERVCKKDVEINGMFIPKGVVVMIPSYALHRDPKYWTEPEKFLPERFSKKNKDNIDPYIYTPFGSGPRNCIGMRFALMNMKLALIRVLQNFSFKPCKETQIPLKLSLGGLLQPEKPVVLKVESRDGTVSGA

For `COCOc1ccc2c(C(F)(F)F)cc(=O)oc2c1` [MOMFC, 7-methyloxymethyloxy-4-trifluoromethylcoumarin], at CYP 2C9 (CYP 2C9), the “conversion to the same fluorescent product vs the most closely structurally-related substrate” value was “more efficient conversion”, the kcat is 0.0017 s⁻¹ and the type of kinetics result is recorded as “Michaelis-”. Further, at CYP 2C9 (CYP 2C9, substrate 1.25 uM), the “v (1.25 uM), turnover rate at 1.25 μM” value amounted to 0.00 min⁻¹. Also, the “v (10 uM), turnover rate at 10 μM” value at CYP 2C9 (CYP 2C9, substrate 10 uM) was determined as 0.07 min⁻¹. On CYP 2B6 (CYP 2B6), the “conversion to the same fluorescent product vs the most closely structurally-related substrate” value is recorded as “less efficiently converted” and the type of kinetics result is “not Michaelis-”. Further, at CYP 2B6, the “v (1.25 uM), turnover rate at 1.25 μM” value was found to be 0.54 min⁻¹ and the “v (10 uM), turnover rate at 10 μM” value was determined as 0.71 min⁻¹.

Take `CCC1C2CC3C4N(C)c5ccccc5C45CC(C2C5O)N3C1O` (centres unmarked) [Amjaline]: the Ki on CYP 2D6 was > 30 µM.

Take `NC1CCCCC1NC(=O)c1cc2ccc(OCOCc3ccccc3)cc2oc1=O` (racemic) [BOM-09B]: the “activity with the CYP 3A4 isozyme” value at CYP 3A4 [1] is “particularly high activity”. Besides, the conversion rate at CYP 3A4 [1] (37° C., pH 8.0, 1 hour) was 0.75 pmol substrate/pmol enzyme·min. In addition, on CYP 3A4 [1] (identical conditions), the “rate of conversion compared with BOMCC” value was “half that of BOMCC”.

With `O=c1ccc2nc3ccc(OCc4ccccc4)cc3oc-2c1` [BR, Benzylresorufin, reference compound], at CYP 3A4 [2] (CYP 3A4), the kcat came to 0.0017 s⁻¹, the kcat/Km was found to be 377 M⁻¹ s⁻¹ and the type of kinetics result is “Michaelis-”. Also, the “turnover rate (kcat)” value at CYP 3A4 [2] (CYP 3A4, FIG. 4 data) came out at 0.00167 s⁻¹. In addition, on CYP 3A4 [2] (CYP 3A4, substrate 1.25 uM), the “v (1.25 uM), turnover rate at 1.25 μM” value was determined as 0.02 min⁻¹. Further, the “v (10 uM), turnover rate at 10 μM” value at CYP 3A4 [2] (CYP 3A4, substrate 10 uM) came out at 0.08 min⁻¹. Besides, at CYP 2B6 (CYP 2B6), the type of kinetics entry was “not Michaelis-”. In addition, at CYP 2B6, the “v (1.25 uM), turnover rate at 1.25 μM” value turned out to be 0.42 min⁻¹ and the “v (10 uM), turnover rate at 10 μM” value came out at 0.42 min⁻¹.

`CC(C)NC[C@H](O)COc1cccc2ccccc12` (racemic) [Propanolol]: the inhibitory constant (Ki) at CYP 2D6 (human, cyp 2d6, pH 8) is > 30 µM.

B1: CYP 2C9 (Homo sapiens) (protein)
chain: MDSLVVLVLCLSCLLLLSLWRQSSGRGKLPPGPTPLPVIGNILQIGIKDISKSLTNLSKVYGPVFTLYFGLKPIVVLHGYEAVKEALIDLGEEFSGRGIFPLAERANRGFGIVFSNGKKWKEIRRFSLMTLRNFGMGKRSIEDRVQEEARCLVEELRKTKASPCDPTFILGCAPCNVICSIIFHKRFDYKDQQFLNLMEKLNENIKILSSPWIQICNNFSPIIDYFPGTHNKLLKNVAFMKSYILEKVKEHQESMDMNNPQDFIDCFLMKMEKEKHNQPSEFTIESLENTAVDLFGAGTETTSTTLRYALLLLLKHPEVTAKVQEEIERVIGRNRSPCMQDRSHMPYTDAVVHEVQRYIDLLPTSLPHAVTCDIKFRNYLIPKGTTILISLTSVLHDNKEFPNPEMFDPHHFLDEGGNFKKSKYFMPFSAGKRICVGEALAGMELFLFLTSILQNFNLKSLVDPKNLDTTPVVNGFASVPPFYQLCFIPV
For the molecule B1, in data set [3], the Km amounted to 14.9 µM and the kcat/Km worked out at 157 M⁻¹ s⁻¹. In [4], the Km was 103.0 µM, the kcat amounted to 0.0067 s⁻¹ and the kcat/Km turned out to be 70 M⁻¹ s⁻¹. In data set [5], the Km worked out at 3.0 µM and the kcat/Km came to 814 M⁻¹ s⁻¹.

B2: CYP 2D6 (Homo sapiens) (protein)
chain: MGLEALVPLAVIVAIFLLLVDLMHRRQRWAARYPPGPLPLPGLGNLLHVDFQNTPYCFDQLRRRFGDVFSLQLAWTPVVVLNGLAAVREALVTHGEDTADRPPVPITQILGFGPRSQGVFLARYGPAWREQRRFSVSTLRNLGLGKKSLEQWVTEEAACLCAAFANHSGRPFRPNGLLDKAVSNVIASLTCGRRFEYDDPRFLRLLDLAQEGLKEESGFLREVLNAVPVLLHIPALAGKVLRFQKAFLTQLDELLTEHRMTWDPAQPPRDLTEAFLAEMEKAKGNPESSFNDENLRIVVADLFSAGMVTTSTTLAWGLLLMILHPDVQRRVQQEIDDVIGQVRRPEMGDQAHMPYTTAVIHEVQRFGDIVPLGVTHMTSRDIEVQGFRIPKGTTLITNLSSVLKDEAVWEKPFRFHPEHFLDAQGHFVKPEAFLPFSAGRRACLGEPLARMELFLFFTSLLQHFSFSVPTGQPRPSHHGVFAFLVSPSPYELCAVPR
Turning to B2, in [6], the Km was determined as 10.0 µM and the kcat/Km is 417 M⁻¹ s⁻¹.
